Common to all, as to assay type: cell-based
Conditions in all cases: fluorescent calcium assay

Assay [1] addresses T1, TRPML3 (Homo sapiens, UniProt Q8TDD5).
T1 construct: expressed in transfected cells
T1 sequence (Q8TDD5 1-553): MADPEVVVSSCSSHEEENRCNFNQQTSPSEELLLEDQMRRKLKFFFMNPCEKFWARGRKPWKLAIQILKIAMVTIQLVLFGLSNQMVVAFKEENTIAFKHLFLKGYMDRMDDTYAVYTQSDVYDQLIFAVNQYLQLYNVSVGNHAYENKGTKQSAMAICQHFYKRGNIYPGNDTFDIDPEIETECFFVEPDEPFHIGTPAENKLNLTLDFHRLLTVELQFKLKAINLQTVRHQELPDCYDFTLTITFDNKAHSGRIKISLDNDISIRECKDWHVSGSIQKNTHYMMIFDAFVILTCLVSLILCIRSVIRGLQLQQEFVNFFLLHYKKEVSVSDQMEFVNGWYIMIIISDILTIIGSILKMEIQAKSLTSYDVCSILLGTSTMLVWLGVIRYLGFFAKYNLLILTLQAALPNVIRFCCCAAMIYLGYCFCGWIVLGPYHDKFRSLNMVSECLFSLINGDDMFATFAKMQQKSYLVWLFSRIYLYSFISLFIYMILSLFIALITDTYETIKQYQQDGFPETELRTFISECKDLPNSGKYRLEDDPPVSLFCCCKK
The experiment in a line: Fluorescent TRPML3 assay (performed as for TRPML1, substituting the TRPML3 subtype). The procedure, abridged: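 Agonist activity is scored as percent of plate controls from Fluo4 fluorescence after dye-loaded, doxycycline-induced HEK-293 Trex cells meet compound in high-calcium (10 mM) Ringer's. Compounds run in half-log dilutions from 20 micromolar final, in triplicate.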

Assay [2] concerns the target T2, TRPML2 (Homo sapiens, UniProt Q8IZK6).
T2 construct: expressed in transfected cells
T2 sequence (Q8IZK6 1-566): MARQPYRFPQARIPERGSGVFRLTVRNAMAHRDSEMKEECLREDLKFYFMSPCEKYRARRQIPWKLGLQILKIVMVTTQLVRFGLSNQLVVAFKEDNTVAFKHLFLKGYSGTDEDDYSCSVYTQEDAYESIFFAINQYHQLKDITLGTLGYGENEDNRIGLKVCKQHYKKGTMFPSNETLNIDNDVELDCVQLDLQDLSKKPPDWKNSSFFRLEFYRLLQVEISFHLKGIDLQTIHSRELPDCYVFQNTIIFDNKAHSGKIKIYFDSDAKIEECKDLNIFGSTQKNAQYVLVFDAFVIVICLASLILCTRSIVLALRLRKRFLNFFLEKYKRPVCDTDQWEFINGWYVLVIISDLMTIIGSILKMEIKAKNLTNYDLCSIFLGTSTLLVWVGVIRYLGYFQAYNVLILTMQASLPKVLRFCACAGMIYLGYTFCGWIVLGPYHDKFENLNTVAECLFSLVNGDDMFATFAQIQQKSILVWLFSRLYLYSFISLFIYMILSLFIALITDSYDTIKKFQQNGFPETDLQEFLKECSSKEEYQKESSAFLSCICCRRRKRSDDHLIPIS
The experiment in a line: Fluorescent TRPML2 assay (performed as for TRPML1, substituting the TRPML2 subtype). The procedure: HEK-293 Trex cells were stably transfected with a construct consisting of the human coding sequence for TRPML1 cloned into the […] plasmid pCDNA5 T/O. Mutations were introduced into the TRPML1 sequence to facilitate expression on the cell surface (Silvia Vergarajauregui, Rosa Puertollano, Traffic. 2006 March; 7(3): 337-353). Briefly, the cells are cultured in 150 mm round tissue culture dishes containing 20 mL of media. The day before the assay the cells are rinsed with DPBS-Ca—Mg and then treated briefly with Trypsin-EDTA. The Trypsin-EDTA is diluted with growth media, and cells are counted. 38×10^6 cells are re-plated into 150 mm round tissue culture dishes in media containing 0.5 ug/mL doxycycline to induce expression of hTRPML1.
The day of the experiment cells are lifted from the plates as above and collected by centrifugation. The cells are then suspended in dye loading buffer consisting of Ringer's solution supplemented with 0.1% Pluronic Acid and 1 micromolar Fluo4-AM dye. Cells are loaded for ˜60 minutes in the dark with occasional mixing. The cells are collected by centrifugation, the loading media aspirated, and the cells resuspended in 25 mL Ringer's solution and incubated ˜60 minutes in the dark. The cells are again collected by centrifugation, rinsed in Ringer's Solution and resuspended to […] in modified Ringer's solution containing 10 mM calcium.
Compounds are dissolved to a concentration of 10 millimolar with DMSO. Compound plates are created by dispensing compounds into 384 well black wall clear bottom plates (Greiner 781091). Positive and negative controls are included on each plate. Typically, different amounts of each compound are tested ranging from 100 nanoMoles (20 micromolar final concentration) decreasing in half-log steps to 31 picoMoles (6 nanomolar final concentration). Each concentration is typically tested in triplicate.
50 microliters of dye-loaded cells are dispensed into each well of the compound assay plate created above. The fluorescence in each well is then determined with an excitation wavelength of 480 nm and an emission wavelength of 540 nm using either a Molecular Devices SpectraMax multimode plate reader or a Hamamatsu FDSS/uCell plate imager.
The resulting fluorescence for each well is exported as an ascii file and loaded into our LIMS for analysis. The percent activity of each compound at each concentration is determined by comparison to the positive and negative control wells included in each plate.
TRPML2 and TRPML3 Assays Assays for TRPML2 and TRPML3 were performed as above for TRPML1, by substituting the appropriate TRPML2 or TRPML3 subtype for the TRPML1.
EC50 values were calculated using a non-linear regression of Prism. In the table, “A” indicates an EC50 of less than 100 nM, “B” indicates an EC50 range from 100 nM to 500 nM; “C” indicates an EC50 range from 500 nM to 2 μM; and “D” indicates an EC50 greater than 2 μM.

The target of assay [3] is TRPML1 (Homo sapiens, UniProt Q9GZU1). The experiment in a line: Fluorescent TRPML1 assay (Fluo4-AM calcium fluorescence in doxycycline-induced HEK-293 Trex cells). A digest of the protocol:
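First, expression of surface-targeted mutant human TRPML1 is induced in HEK-293 Trex cells with 0.5 ug/mL doxycycline the day before. Next, cells take up 1 micromolar Fluo4-AM in Ringer's with 0.1% Pluronic. Finally, they are added to compounds (6 nanomolar–20 micromolar final) in 10 mM calcium Ringer's and fluorescence is read.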

Where only a bound is given, the exact number is not on record here.

TRPML1, sequence (Q9GZU1 whole entry L15A/L16A/L577A/L578A, form open): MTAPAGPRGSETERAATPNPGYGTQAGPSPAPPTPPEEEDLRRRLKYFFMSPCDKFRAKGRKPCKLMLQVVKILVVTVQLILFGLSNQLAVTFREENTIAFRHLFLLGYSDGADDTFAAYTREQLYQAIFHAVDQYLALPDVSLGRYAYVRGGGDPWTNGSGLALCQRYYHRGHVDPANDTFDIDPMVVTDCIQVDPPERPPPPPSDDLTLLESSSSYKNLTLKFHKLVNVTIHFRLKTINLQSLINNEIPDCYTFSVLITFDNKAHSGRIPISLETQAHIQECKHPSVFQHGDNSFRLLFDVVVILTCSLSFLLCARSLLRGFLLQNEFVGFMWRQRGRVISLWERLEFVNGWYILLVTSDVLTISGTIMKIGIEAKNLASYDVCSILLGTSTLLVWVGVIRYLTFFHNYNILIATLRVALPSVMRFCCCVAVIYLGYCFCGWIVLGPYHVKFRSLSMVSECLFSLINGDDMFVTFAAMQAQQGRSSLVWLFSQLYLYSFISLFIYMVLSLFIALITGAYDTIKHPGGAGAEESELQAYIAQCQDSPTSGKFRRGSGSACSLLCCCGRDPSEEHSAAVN

Turning to `C[C@H]1CN(C(=O)OC(C)(C)C)CCN1c1ncnc2c1c(-c1ncccn1)cn2-c1cccc(Cl)c1` [Compound 116, tert-butyl (S)-4-(7-(3-chlorophenyl)-5-(pyrimidin-2-yl)-7H-pyrrolo[2,3-d]pyrimidin-4-yl)-3-methylpiperazine-1-carboxylate], the EC50 (usually the midpoint of the concentration-response curve) in assay [1] was in the range of 100 to 500 nM; in assay [2], 500 to 2000 nM; in assay [3], 100 to 500 nM.

In the case of `C[C@@H]1CN(c2ncnc3c2c(-c2ccccn2)cn3-c2cccc(Cl)c2)[C@@H](C)CN1C(=O)OC(C)(C)C` [Compound 117, tert-butyl (2R,5S)-4-(7-(3-chlorophenyl)-5-(pyridin-2-yl)-7H-pyrrolo[2,3-d]pyrimidin-4-yl)-2,5-dimethylpiperazine-1-carboxylate], the EC50 in assay [1] is < 100 nM; in assay [2] it was 100 to 500 nM; in assay [3], < 100 nM.

Turning to `CCOC(=O)N1C[C@H](C)N(c2ncnc3c2c(-c2ccccn2)cn3-c2cccc(Cl)c2)C[C@H]1C` [Compound 118, Ethyl (2R,5S)-4-(7-(3-chlorophenyl)-5-(pyridin-2-yl)-7H-pyrrolo[2,3-d]pyrimidin-4-yl)-2,5-dimethylpiperazine-1-carboxylate], the EC50 was 500 to 2000 nM in assay [1], > 2000 nM in assay [2] and 100 to 500 nM in assay [3].

Consider `C[C@H]1CN(C(=O)OC(C)(C)C)CCN1c1ncnc2c1c(-c1ccccn1)cn2-c1cccc(Cl)c1` [Compound 119, tert-butyl (S)-4-(7-(3-chlorophenyl)-5-(pyridin-2-yl)-7H-pyrrolo[2,3-d]pyrimidin-4-yl)-3-methylpiperazine-1-carboxylate], for which the results for the EC50 in assay [1], in assay [2] and in assay [3] were < 100 nM, 100 to 500 nM and < 100 nM, respectively.

With `C[C@H]1CN(C(=O)OC(C)(C)C)CCN1c1ncnc2c1c(-c1cnccn1)cn2-c1cccc(Cl)c1` [Compound 120, tert-butyl (S)-4-(7-(3-chlorophenyl)-5-(pyrazin-2-yl)-7H-pyrrolo[2,3-d]pyrimidin-4-yl)-3-methylpiperazine-1-carboxylate], the EC50 in assay [1] is < 100 nM; in assay [2], 100 to 500 nM; in assay [3], 100 to 500 nM.

For the molecule `C[C@H]1CN(C(=O)OC(C)(C)C(F)(F)F)CCN1c1ncnc2c1c(-c1ccccn1)cn2-c1cccc(Cl)c1` [Compound 121, 1,1,1-trifluoro-2-methylpropan-2-yl (S)-4-(7-(3-chlorophenyl)-5-(pyridin-2-yl)-7H-pyrrolo[2,3-d]pyrimidin-4-yl)-3-methylpiperazine-1-carboxylate], the EC50 was < 100 nM in assay [1], 100 to 500 nM in assay [2] and < 100 nM in assay [3].

Regarding `CC(C)(C)OC(=O)N1CCN(c2ncnc3c2c(C2CC2)cn3-c2cc(Cl)cc(Cl)c2)CC1` [Compound 122, tert-butyl 4-(5-cyclopropyl-7-(3,5-dichlorophenyl)-7H-pyrrolo[2,3-d]pyrimidin-4-yl)piperazine-1-carboxylate], the concentration giving a half-maximal response (EC50) is < 100 nM in assay [1], > 2000 nM in assay [2] and < 100 nM in assay [3].

With `C[C@@H]1CN(c2ncnc3c2c(C2CC2)cn3-c2cc(F)cc(Cl)c2)CCN1C(=O)OC(C)(C)C` [Compound 123, tert-butyl (R)-4-(7-(3-chloro-5-fluorophenyl)-5-cyclopropyl-7H-pyrrolo[2,3-d]pyrimidin-4-yl)-2-methylpiperazine-1-carboxylate], the EC50 in assay [1] was < 100 nM; in assay [2], 100 to 500 nM; in assay [3], < 100 nM.

As for `C[C@@H]1CN(c2ncnc3c2c(-c2cnccn2)cn3-c2cccc(Cl)c2)[C@@H](C)CN1C(=O)OC(C)(C)C` [Compound 124, tert-butyl (2R,5S)-4-(7-(3-chlorophenyl)-5-(pyrazin-2-yl)-7H-pyrrolo[2,3-d]pyrimidin-4-yl)-2,5-dimethylpiperazine-1-carboxylate], the EC50 is 100 to 500 nM in assay [1], 500 to 2000 nM in assay [2] and < 100 nM in assay [3].

Turning to `C[C@H]1CN(C(=O)OC(C)(C)C)CCN1c1ncnc2c1c(C1CC1)cn2-c1cccc(F)c1` [Compound 127, tert-butyl (S)-4-(5-cyclopropyl-7-(3-fluorophenyl)-7H-pyrrolo[2,3-d]pyrimidin-4-yl)-3-methylpiperazine-1-carboxylate], the EC50 in assay [1] was < 100 nM; in assay [2], 100 to 500 nM; in assay [3] it was < 100 nM.

For `C[C@H]1CN(C(=O)OC(C)(C)C)CCN1c1ncnc2c1c(C1CC1)cn2-c1ccc(F)cc1` [Compound 128, tert-butyl (S)-4-(5-cyclopropyl-7-(4-fluorophenyl)-7H-pyrrolo[2,3-d]pyrimidin-4-yl)-3-methylpiperazine-1-carboxylate], the values for the EC50 in assay [1], in assay [2] and in assay [3] were < 100 nM, 100 to 500 nM and < 100 nM, respectively.

Turning to `C[C@H]1CN(C(=O)OC(C)(C)C)CCN1c1ncnc2c1c(C1CC1)cn2-c1cc(Cl)cc(Cl)c1` [Compound 129, tert-butyl (S)-4-(5-cyclopropyl-7-(3,5-dichlorophenyl)-7H-pyrrolo[2,3-d]pyrimidin-4-yl)-3-methylpiperazine-1-carboxylate], the EC50 in assay [1] is < 100 nM; in assay [2], 100 to 500 nM; in assay [3], < 100 nM.

As to `C[C@@H]1CN(c2ncnc3c2c(C2CC2)cn3-c2cccc(Cl)c2)[C@@H](C)CN1C(=O)OC(C)(C)C` [Compound 130, tert-butyl (2R,5S)-4-(7-(3-chlorophenyl)-5-cyclopropyl-7H-pyrrolo[2,3-d]pyrimidin-4-yl)-2,5-dimethylpiperazine-1-carboxylate], the EC50 in assay [1] was < 100 nM; in assay [2] it was 100 to 500 nM; in assay [3], < 100 nM.

With `C[C@@H]1CN(c2ncnc3c2c(-c2cccnc2)cn3-c2cccc(Cl)c2)[C@@H](C)CN1C(=O)OC(C)(C)C` [Compound 131, tert-butyl (2R,5S)-4-(7-(3-chlorophenyl)-5-(pyridin-3-yl)-7H-pyrrolo[2,3-d]pyrimidin-4-yl)-2,5-dimethylpiperazine-1-carboxylate], the EC50 in assay [1] is < 100 nM; in assay [2] it was 100 to 500 nM; in assay [3], < 100 nM.

Source of the values: US20250136606A1, “MODULATORS OF TRPML, THEIR COMPOSITIONS AND METHODS OF USE” (Caraway Therapeutics, Inc., priority 2021, published 2025).
